Read-outs that look alike come from different tables or passages of the source.
Tests used:
[1] = test system: NCI-H460 (PI3K-E545K/KRAS-Q61H); assay: pAKT (T308) ELISA assay, NCI-H460; type: cell-based; details: Homo sapiens, PI3KαE545K, read-out: Cellular pAKT (T308) IC50 NCI-H460
Method: (§1) In another embodiment, the pAKT ELISA Assay was performed by seeding cells onto 96-well plates (Corning, 3904) in their respective growth media at the densities listed in Table 3. Cells were incubated at 37° C., 5% CO2 for 48 h (except MDA-MB-453 cells which were cultured in the absence of CO2). Compounds were serially diluted in DMSO and subsequently diluted in serum-free DMEM. Test compounds were added to cells in serum-free DMEM at a final concentration of 0.3% DMSO and incubated for 3 h. Cells were lysed with 130 μL of ice-cold RIPA lysis buffer (50 mM Tris-HCl, pH 7.5; 0.5% sodium deoxycholic acid; 1% Triton X-100; 0.1% SDS; 150 mM NaCl) with protease and phosphatase inhibitors (1 mM EDTA, 1 mM NaF, 20 mM β-glycerophosphate, 1 mM Na-orthovanadate, Complete-Mini EDTA-free, Roche, 11836170001, and Phosphatase Inhibitor Cocktail I, Sigma, P2850), directly in 96-well plates. Cells were lysed on ice for 60-120 min at 4° C. The supernatants were added directly to capture ELISA plates previously pre-coated with rabbit anti-AKT capture antibody. […] The wells were measured for luminescence using a Wallac plate reader at wavelength of 560 nm. After normalization of pAKT signal to total AKT1 signal, IC50 values were determined relative to the DMSO-treated control.

HCT 116 (PI3Kα H1047R) = assay: pAKT (T308) ELISA assay, HCT 116; type: cell-based; details: Homo sapiens, PI3KαH1047R, IGF1, read-out: Cellular pAKT (T308) IC50 HCT 116
Method: as §1

PI3Kα = PI3Kα (Homo sapiens, UniProt P42336); assay: PI3K biochemical assay (ATP consumption, luciferase-luciferin)
Method: PI3Kα activity is measured as the percent of ATP consumed following the kinase reaction using luciferase-luciferin-coupled chemiluminescence. Reactions were conducted in 384-well white, medium binding microtiter plates (Greiner). Kinase reactions were initiated by combining test compounds, ATP, substrate (PIP2), and kinase in a 20 μL volume in a buffer solution. The standard PI3Kalpha assay buffer is composed 50 mM Tris, pH 7.5, 1 mM EGTA, 10 mM MgCl2, 1 mM DTT and 0.03% CHAPS. The standard assay concentrations for enzyme, ATP, and substrate are 1.5 nM, 1 μM, and 10 μM, respectively. The reaction mixture was incubated at ambient temperature for approximately 2 h. Following the kinase reaction, a 10 μL aliquot of luciferase-luciferin mix (Promega Kinase-Glo) was added and the chemiluminescence signal measured using a Victor2 plate reader (Perkin Elmer). Total ATP consumption was limited to 40-60% and IC50 values of control compounds correlate well with literature references. Substituting PI3Kα with PI3Kβ, PI3Kγ, or PI3Kδ, the inhibitory activity of the compounds for the other isoforms of I3K were measured.

PI3Kα-mutated models = assay: Growth factor induced AKT phosphorylation compared across PI3Kα-mutated models; type: cell-based; details: cell lines of Table 6
Method: Cells were incubated at 37° C., 5% CO2 for 48 h (except MDA-MB-453 cells which were cultured in the absence of CO2). Compounds were serially diluted in DMSO and subsequently diluted in serum-free DMEM. Test compounds were added to cells in serum-free DMEM at a final concentration of 0.3% DMSO and incubated for 3 h. Cells were lysed with 130 μL of ice-cold RIPA lysis buffer (50 mM Tris-HCl, pH 7.5; 0.5% sodium deoxycholic acid; 1% Triton X-100; 0.1% SDS; 150 mM NaCl) with protease and phosphatase inhibitors (1 mM EDTA, 1 mM NaF, 20 mM β-glycerophosphate, 1 mM Na-orthovanadate, Complete-Mini EDTA-free, Roche, 11836170001, and Phosphatase Inhibitor Cocktail I, Sigma, P2850), directly in 96-well plates. Cells were lysed on ice for 60-120 min at 4° C. The supernatants were added directly to capture ELISA plates previously pre-coated with rabbit anti-AKT capture antibody. ELISA assays for pAKT(T308) and total AKT were performed with the pAKT(T308) ELISA kit (Cell Signaling Technology, 7144) and AKT1 ELISA kit (Cell Signaling Technology, 7142). For the pAKT(T308) ELISA, 85 μL of cell lysate was added to each well. For the total AKT1 ELISA, 15 μL of cell lysate and 85 μL of Starting Block buffer (Pierce, 37543) were added to each well.
Cells were incubated at 37° C., 5% CO2 for 48 h (except MDA-MB-453 cells which were cultured in the absence of CO2). […]

PI3Kα, sequence (P42336 whole entry): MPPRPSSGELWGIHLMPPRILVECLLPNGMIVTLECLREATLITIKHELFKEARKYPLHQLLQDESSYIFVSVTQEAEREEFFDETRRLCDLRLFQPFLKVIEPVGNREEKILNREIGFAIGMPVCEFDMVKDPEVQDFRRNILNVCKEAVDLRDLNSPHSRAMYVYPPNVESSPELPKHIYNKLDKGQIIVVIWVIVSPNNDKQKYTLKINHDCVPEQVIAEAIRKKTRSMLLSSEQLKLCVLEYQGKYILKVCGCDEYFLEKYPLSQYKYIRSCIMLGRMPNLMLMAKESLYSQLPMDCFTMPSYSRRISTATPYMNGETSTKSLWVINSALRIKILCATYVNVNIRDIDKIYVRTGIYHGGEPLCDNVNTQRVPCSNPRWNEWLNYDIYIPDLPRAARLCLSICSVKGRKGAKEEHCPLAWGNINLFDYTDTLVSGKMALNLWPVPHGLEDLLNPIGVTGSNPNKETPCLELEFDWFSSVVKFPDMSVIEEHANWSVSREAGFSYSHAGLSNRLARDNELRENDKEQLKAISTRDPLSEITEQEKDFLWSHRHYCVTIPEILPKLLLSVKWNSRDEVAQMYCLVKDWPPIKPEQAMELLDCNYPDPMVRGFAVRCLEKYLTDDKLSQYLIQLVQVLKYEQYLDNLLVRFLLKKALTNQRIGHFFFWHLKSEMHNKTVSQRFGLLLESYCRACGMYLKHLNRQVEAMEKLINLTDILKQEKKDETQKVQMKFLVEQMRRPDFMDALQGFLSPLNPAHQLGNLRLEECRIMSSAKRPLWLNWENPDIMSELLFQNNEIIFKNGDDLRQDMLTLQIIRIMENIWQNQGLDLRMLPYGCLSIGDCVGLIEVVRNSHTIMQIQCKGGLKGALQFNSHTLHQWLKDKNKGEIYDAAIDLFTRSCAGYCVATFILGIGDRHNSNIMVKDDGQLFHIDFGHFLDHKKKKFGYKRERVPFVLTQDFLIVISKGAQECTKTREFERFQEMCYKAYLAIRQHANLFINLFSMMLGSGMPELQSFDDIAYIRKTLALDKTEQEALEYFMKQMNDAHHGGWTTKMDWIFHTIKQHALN
PI3Kα, sequence (P27986 whole entry partner): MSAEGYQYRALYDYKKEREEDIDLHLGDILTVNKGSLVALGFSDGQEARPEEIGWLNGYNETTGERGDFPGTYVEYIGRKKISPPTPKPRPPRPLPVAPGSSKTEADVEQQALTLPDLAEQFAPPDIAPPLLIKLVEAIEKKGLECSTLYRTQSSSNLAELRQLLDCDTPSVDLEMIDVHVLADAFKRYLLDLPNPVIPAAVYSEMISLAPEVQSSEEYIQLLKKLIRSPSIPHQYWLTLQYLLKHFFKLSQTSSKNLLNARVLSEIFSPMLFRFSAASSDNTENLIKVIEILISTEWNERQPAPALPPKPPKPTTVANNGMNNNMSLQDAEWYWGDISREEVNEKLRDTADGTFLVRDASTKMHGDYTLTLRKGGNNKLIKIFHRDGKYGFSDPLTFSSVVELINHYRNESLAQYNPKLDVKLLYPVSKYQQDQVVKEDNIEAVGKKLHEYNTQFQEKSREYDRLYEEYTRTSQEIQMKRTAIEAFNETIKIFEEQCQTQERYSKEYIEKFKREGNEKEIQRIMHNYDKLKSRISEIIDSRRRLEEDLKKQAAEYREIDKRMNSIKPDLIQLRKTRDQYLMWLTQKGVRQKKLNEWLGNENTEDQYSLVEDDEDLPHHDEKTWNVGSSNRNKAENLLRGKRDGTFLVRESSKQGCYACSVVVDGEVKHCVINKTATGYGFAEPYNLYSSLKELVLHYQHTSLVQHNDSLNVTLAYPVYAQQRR

IC50 [1]: > 30 µM
IC50 (HCT 116 (PI3Kα H1047R)): 26.4 µM
IC50 (PI3Kα; PIP2 as substrate, read-out: PI3K biochemical IC50 PI3Kα): 1.78 µM
IC50 (PI3Kα; Table 5, read-out: Biochemical IC50 PI3Kα): 1.78 µM
Structure (SMILES): Cc1cc(C(C)Nc2ccccc2)c2nc(N3CCOCC3)cc(=O)n2c1 (centres unmarked) [TGX-221, 7-methyl-2-(4-morpholinyl)-9-[1-(phenylamino)ethyl]-4H-pyrido[1,2-a]pyrimidin-4-one]
effect on PI3Kα mediated activity in these cell models (PI3Kα-mutated models): no effect

Source: patent US20140066431A1, “Benzoxazepines as Inhibitors of PI3K/mTOR and Methods of Their Use and Manufacture” (Exelixis, Inc., priority 2010, published 2014)
